Experimental data from patent US20150141437A1, “AMIDOPHENOXYPROPANOLAMINES” (MEDIZINISCHE UNIVERSITÄT WIEN, priority 2012, published 2015).
pIC50: −log10 of the molar value.

Experiments:
[1] = system: P. falciparum K1 (CQ-resistant); assay: [3H]-hypoxanthine incorporation assay, K1 strain; assay type: cell-based; conditions: Plasmodium falciparum, values marked with asterisk: [3H]-hypoxanthine assay, read-out: IC50 growth inhibition K1 (*)
[2] = system: P. berghei, ANKA strain, GFP MRA-865; assay: P. berghei rodent malaria 4-day suppressive test; assay type: in vivo, Plasmodium berghei; conditions: NMRI mice, 30 mg/kg 4x i.p.; for % activity (percent reduction of parasitemia) / % of control: day 4; for avg.Day 4 (parasitemia): day 4 (96 h post-infection); for % of control: control group taken as 100%
Method: Primary biological assessment of in vivo antimalarial efficacy of the compounds of the present invention was assessed using the P. berghei rodent malaria 4-day suppressive test as recently described (14) (parasite: P. berghei, ANKA strain, GFP MRA-865; mice: NMRI mice, SPF, females, 25±2 g. free from Eperythrozoon coccoides and Haemobartonella muris). The experimental groups were treated with a single dose of compounds of the present invention (30 mg/kg) by the i.p. route. The compounds were prepared at an appropriate concentration, as a solution or suspension containing 7% Tween80/3% ethanol. Day 1 to 3 (24 h, 48 h and 72 h post-infection), the experimental groups of mice were treated again with the same dose and by the same route as on day 0. Day 4 (24 h after the last treatment, i.e. 96 h post-infection), blood smears from all animals are prepared and stained with Giemsa. Parasitemia was determined as described elsewhere (14). The difference between the mean value of the control group (taken as 100%) and those of the experimental groups was calculated and expressed as percent reduction (=activity).
Indicated in TABLE 3 below are the percent reduction values for growth inhibition of the Plasmodium berghei parasite for the compounds of formula I indicated with their formula numbers of TABLE 2. Correlation of the formula numbers and chemical structures are set out in TABLE 1 of the example part.

[3] = system: P. falciparum NF54 (CQ sensitive); assay: [3H]-hypoxanthine incorporation assay, NF54 strain; assay type: cell-based; conditions: Plasmodium falciparum, values marked with asterisk: [3H]-hypoxanthine assay, read-out: IC50 growth inhibition NF54*
[4] = system: chloroquine (CQ) sensitive (3D7) strain of P. falciparum; assay: antimalarial activity against 3D7 compared to propafenone (data not shown); assay type: cell-based

Structure (SMILES) | pIC50 [1] | % activity (percent reduction of parasitemia) [2] [%] | avg.Day 4 (parasitemia) [2] | % of control [2] [%] | pIC50 [3] | decrease in IC50-value compared to propafenone (A) [4]
O=C(Nc1ccc(F)cc1F)c1ccccc1OCC(O)CNCC12CC3CC(CC(C3)C1)C2 (stereo not drawn) [Compound I-39, 2-{3-[(Adamantan-1-ylmethyl)-amino]-2-hydroxy-propoxy}-N-(2,4-difluoro-phenyl)-benzamide] | 8.52 | 49.01 | 30.40 | 50.99 | 8.05 | 
O=C(Nc1cccc(C(F)(F)F)c1)c1ccccc1OCC(O)CNCC12CC3CC(CC(C3)C1)C2 (stereo not drawn) [Compound I-42, 2-{3-[(Adamantan-1-ylmethyl)-amino]-2-hydroxy-propoxy}-N-(3-trifluoromethyl-phenyl)-benzamide] | 9.30 | 97.76 | 1.33 | 2.24 | 8.70 | 
O=C(Nc1ccc(F)cc1)c1ccccc1OCC(O)CNCC12CC3CC(CC(C3)C1)C2 (stereo not drawn) [Compound I-55, 2-{3-[(Adamantan-1-ylmethyl)-amino]-2-hydroxy-propoxy}-N-(4-fluoro-phenyl)-benzamide] | 8.70 | 67.35 | 19.47 | 32.65 | 8.22 | 
Cc1ccc(NC(=O)c2ccccc2OCC(O)CNCC23CC4CC(CC(C4)C2)C3)cc1 (stereo not drawn) [Compound I-40, 2-{3-[(Adamantan-1-ylmethyl)-amino]-2-hydroxy-propoxy}-N-p-tolyl-benzamide] | 8.70 | 58.24 | 24.90 | 41.76 | 8.22 | 
CCCNCC(O)COc1ccccc1C(=O)NCc1ccccc1 (stereo not drawn) [aza-propafenone] |  |  |  |  |  | seventy-fold decrease
